# Laboratory results from patent publication US20080222745A1, “Colcemid-Treatment of Oocytes to enhance Nuclear Transfer Cloning” (Utah State University, priority 2007, published 2008).
# Values joined by “and” are separate entries in the source; they are usually repeats but may differ in a detail not shown here. Equal entries are not always repeated. “Also recorded” adds a separate entry of the source. Where two headings read alike, the source gives them in different places. Marks after values point to notes of the source that are not given here.
# How the values were obtained:
# bovine oocytes [1] = test: Membrane projections of bovine oocytes after colcemid treatment; assay type: cell-based; conditions: for oocytes exhibiting an obvious membrane projection: colcemid treatment for 2 to 4 hr
# bovine NT blastocysts = test: Chromosomal analysis and cell number count of Day 7 NT blastocysts; assay type: cell-based; conditions: for No. cells blastocysts (mean ± SD): oocytes matured 16-17 hours, 0.2 μg/ml for 2-3 hours; for Cell number of blastocysts (mean ± SD): 0.2 μg/ml for 2-3 hr
# Procedure: Day 7 blastocysts were prepared and examined for their cytogenetic composition and the number of nuclei contained was verified. […] Chromosomes were examined at 1000× under a Zeiss microscope, and the chromosome composition was determined for each blastocyst.
# [2] = tested on: NT embryos transferred to recipient cows; test: Pregnancy rates after transfer of NT embryos to recipient cows; assay type: in vivo, bovine
# Description: FIG. 1 is a diagram showing pregnancy rates throughout gestation following transfer of NT embryos derived from colcemid-treated versus untreated heifer cytoplasts. […] Six to seven days after NT, morulae and blastocysts were transferred to recipient cows. The solid bars show pregnancy rates for nuclear transfer embryos generated from heifer oocytes which were not treated with colcemid.
# The day 6-7 morulae and blastocysts were selected and transferred to recipient cows. A total of 191 recipient cows were used for embryo transfer. Forty cows received embryos from colcemid-treated oocytes and 151 cows received embryos from non-treated oocytes. Pregnancy rates were monitored throughout gestation.
# bovine oocytes [3] = conditions: colcemid vs control, 15-22 hr maturation
# Procedure: Oocytes were vortexed in 1 ml PB1+ containing 10 mg/ml hyaluronidase for 4 minutes to completely remove cumulus cells. Oocytes of good quality were selected for use. Oocytes were loaded with Ca^2+ indicator by incubation in 2 μM Fura-2 AM ester (Molecular Probes, Eugene, Oreg.) and 0.02% Pluronic F-127 (Molecular Probes) in Ca^2+- and Mg^2+-free phosphate buffered saline (Hyclone Laboratories) containing 0.32 mM sodium pyruvate, 5.55 mM glucose, 3 mg/ml BSA, and 100 μM EGTA at 39° C. in darkness for 45 min. After loading with indicator, oocytes were washed extensively with PB1+ (phosphate-buffered saline with Ca^2+ and Mg^2+ plus 5.55 mM glucose, 0.32 mM sodium pyruvate, 3 mg/ml BSA) and maintained in this solution at 39° C. until use.
# Fura-2 loaded oocytes were transferred to a 50-μl drop of PB1+ medium covered with mineral oil.
smiles,measurement,setting,value
"CN[C@H]1CCc2cc(OC)c(OC)c(OC)c2-c2ccc(OC)c(=O)cc21 [colcemid, N-deacetyl-N-methylcolchicine]",No. oocytes with blebs or Pb1 + bleb (%),"bovine oocytes [1]; oocytes with PB1 matured 16-17 hr, 0.2 μg/ml for 2 h, 26 of 36 oocytes",26 (72.2) %
same,No. oocytes with blebs or Pb1 + bleb (%),"bovine oocytes [1]; oocytes with PB1 matured 16-17 hr, 0.2 μg/ml for 4 h, 31 of 39 oocytes",31 (79.5) %
same,No. oocytes with blebs or Pb1 + bleb (%),"bovine oocytes [1]; oocytes with PB1 matured 16-17 hr, 0.4 μg/ml for 2 h, 29 of 38 oocytes",29 (76.3) %
same,No. oocytes with blebs or Pb1 + bleb (%),"bovine oocytes [1]; oocytes with PB1 matured 16-17 hr, 0.4 μg/ml for 4 h, 28 of 38 oocytes",28 (73.6) %
same,oocytes exhibiting an obvious membrane projection,bovine oocytes [1]; oocytes with PB1 matured 16-17 hr,approximately 80%
same,No. oocytes with blebs or Pb1 + bleb (%),"bovine oocytes [1]; oocytes without PB1 matured 16-17 hr, 0.1 μg/ml for 1 h, 32 of 46 oocytes",32 (69.6) %
same,No. oocytes with blebs or Pb1 + bleb (%),"bovine oocytes [1]; oocytes without PB1 matured 16-17 hr, 0.1 μg/ml for 2 h, 39 of 48 oocytes",39 (81.2) %
same,No. oocytes with blebs or Pb1 + bleb (%),"bovine oocytes [1]; oocytes without PB1 matured 16-17 hr, 0.1 μg/ml for 4 h, 43 of 46 oocytes",43 (93.4) %
same,No. oocytes with blebs or Pb1 + bleb (%),"bovine oocytes [1]; oocytes without PB1 matured 16-17 hr, 0.2 μg/ml for 2 h, 33 of 42 oocytes",33 (78.6) %
same,No. oocytes with blebs or Pb1 + bleb (%),"bovine oocytes [1]; oocytes without PB1 matured 16-17 hr, 0.2 μg/ml for 4 h, 38 of 42 oocytes",38 (90.5) %
same,No. oocytes with blebs or Pb1 + bleb (%),"bovine oocytes [1]; oocytes without PB1 matured 16-17 hr, 0.4 μg/ml for 2 h, 35 of 43 oocytes",35 (81.3) %
same,No. oocytes with blebs or Pb1 + bleb (%),"bovine oocytes [1]; oocytes without PB1 matured 16-17 hr, 0.4 μg/ml for 4 h, 34 of 41 oocytes",34 (82.9) %
same,oocytes exhibiting an obvious membrane projection,bovine oocytes [1]; oocytes without PB1 matured 16-17 hr,80-93%
same,Blastocyst (%),"bovine NT embryos; Table 3: oocytes matured 16-17 hr, 0.2 μg/ml for 2-3 h, 38 of 90 embryos cultured",38 (42.2)^a %
same,Morula (%),"bovine NT embryos; Table 3: oocytes matured 16-17 hr, 0.2 μg/ml for 2-3 h, 44 of 90 embryos cultured",44 (48.9)^a %
same,2-cell (%),"bovine NT embryos; Table 3: oocytes matured 16-17 hr, 0.2 μg/ml for 2-3 h, 76 of 90 embryos cultured",76 (84.4) %
same,cleavage of NT embryos,"bovine NT embryos; among treatment groups, vs controls, 0.2 μg/ml for 2-3 hr",no difference
same,rate of hatched blastocysts vs untreated groups,bovine NT embryos; colcemid groups vs untreated groups,much higher
same,rate of morula and blastocyst development vs untreated groups,bovine NT embryos; culture in SCR or BCR media,improved
same,Blastocyst (%),"bovine NT embryos; culture system BCR, oocytes matured 16-17 hours, 0.2 μg/ml for 2-3 hours, 20 of 110 cloned embryos, 5% CO2 in air",18.6% and 20 (18.2)^c %
same,Morula (%),"bovine NT embryos; culture system BCR, oocytes matured 16-17 hours, 0.2 μg/ml for 2-3 hours, 27 of 110 cloned embryos",27 (24.5)^b %
same,2-cell (%),"bovine NT embryos; culture system BCR, oocytes matured 16-17 hours, 0.2 μg/ml for 2-3 hours, 81 of 110 cloned embryos",81 (73.6) %
same,Hatched blastocyst (%),"bovine NT embryos; culture system BCR, oocytes matured 16-17 hours, 0.2 μg/ml for 2-3 hours, 110 cloned embryos",0%
same,Hatched blastocyst (%),"bovine NT embryos; culture system SCR and co-culture, oocytes matured 16-17 hours, 0.2 μg/ml for 2-3 hours, 19 of 86 cloned embryos",19 (22.0)^a %
same,Blastocyst (%),"bovine NT embryos; culture system SCR and co-culture, oocytes matured 16-17 hours, 0.2 μg/ml for 2-3 hours, 34 of 86 cloned embryos",39.5% and 34 (39.5)^a %
same,Morula (%),"bovine NT embryos; culture system SCR and co-culture, oocytes matured 16-17 hours, 0.2 μg/ml for 2-3 hours, 42 of 86 cloned embryos",42 (48.8)^a %
same,2-cell (%),"bovine NT embryos; culture system SCR and co-culture, oocytes matured 16-17 hours, 0.2 μg/ml for 2-3 hours, 74 of 86 cloned embryos",74 (86.0) %
same,Hatched blastocyst (%),"bovine NT embryos; culture system SCR, oocytes matured 16-17 hours, 0.2 μg/ml for 2-3 hours, 5 of 135 cloned embryos",5 (3.7)^b %
same,Blastocyst (%),"bovine NT embryos; culture system SCR, oocytes matured 16-17 hours, 0.2 μg/ml for 2-3 hours, 31 of 135 cloned embryos",31 (23.0)^b %
same,Morula (%),"bovine NT embryos; culture system SCR, oocytes matured 16-17 hours, 0.2 μg/ml for 2-3 hours, 41 of 135 cloned embryos",41 (30.3)^b %
same,2-cell (%),"bovine NT embryos; culture system SCR, oocytes matured 16-17 hours, 0.2 μg/ml for 2-3 hours, 96 of 135 cloned embryos",96 (71.1) %
same,Hatching Blastocyst (%),"bovine NT embryos; oocytes matured 14-15 hr, without PB1, 0.2 μg/ml for 2-3 hr, 26 of 100 embryos cultured",26 (26)^a %
same,Blastocyst (%),"bovine NT embryos; oocytes matured 14-15 hr, without PB1, 0.2 μg/ml for 2-3 hr, 40 of 100 embryos cultured",40% and 40 (40)^a %
same,Morula (%),"bovine NT embryos; oocytes matured 14-15 hr, without PB1, 0.2 μg/ml for 2-3 hr, 48 of 100 embryos cultured",48 (48) %
same,2-cell (%),"bovine NT embryos; oocytes matured 14-15 hr, without PB1, 0.2 μg/ml for 2-3 hr, 85 of 100 embryos cultured",85 (85) %
same,Hatching Blastocyst (%),"bovine NT embryos; oocytes matured 16-17 hr, with PB1, 0.2 μg/ml for 2-3 hr, 21 of 81 embryos cultured",21 (25.9)^a %
same,Blastocyst (%),"bovine NT embryos; oocytes matured 16-17 hr, with PB1, 0.2 μg/ml for 2-3 hr, 36 of 81 embryos cultured",44.4% and 36 (44.4)^a %
same,Morula (%),"bovine NT embryos; oocytes matured 16-17 hr, with PB1, 0.2 μg/ml for 2-3 hr, 45 of 81 embryos cultured",45 (55.6) %
same,2-cell (%),"bovine NT embryos; oocytes matured 16-17 hr, with PB1, 0.2 μg/ml for 2-3 hr, 69 of 81 embryos cultured",69 (85.2) %
same,Hatching Blastocyst (%),"bovine NT embryos; oocytes matured 16-17 hr, without PB1, 0.2 μg/ml for 2-3 hr, 22 of 90 embryos cultured",22 (24.2)^a %
same,Blastocyst (%),"bovine NT embryos; oocytes matured 16-17 hr, without PB1, 0.2 μg/ml for 2-3 hr, 38 of 90 embryos cultured",42.2% and 38 (42.2)^a %
same,Morula (%),"bovine NT embryos; oocytes matured 16-17 hr, without PB1, 0.2 μg/ml for 2-3 hr, 44 of 90 embryos cultured",44 (48.9) %
same,2-cell (%),"bovine NT embryos; oocytes matured 16-17 hr, without PB1, 0.2 μg/ml for 2-3 hr, 76 of 90 embryos cultured",76 (84.4) %
same,Blastocyst (%),"bovine NT embryos; oocytes matured 16-17 hr, 0.2 μg/ml for 5-6 h, 32 of 76 embryos cultured",32 (42.1)^a %
same,Morula (%),"bovine NT embryos; oocytes matured 16-17 hr, 0.2 μg/ml for 5-6 h, 37 of 76 embryos cultured",37 (48.7)^a %
same,2-cell (%),"bovine NT embryos; oocytes matured 16-17 hr, 0.2 μg/ml for 5-6 h, 69 of 76 embryos cultured",69 (90.8) %
same,Blastocyst (%),"bovine NT embryos; oocytes matured 16-17 hr, 0.4 μg/ml for 2-3 h, 32 of 73 embryos cultured",32 (43.8)^a %
same,Morula (%),"bovine NT embryos; oocytes matured 16-17 hr, 0.4 μg/ml for 2-3 h, 37 of 73 embryos cultured",37 (50.7)^a %
same,2-cell (%),"bovine NT embryos; oocytes matured 16-17 hr, 0.4 μg/ml for 2-3 h, 66 of 73 embryos cultured",66 (90.4) %
same,Blastocyst (%),"bovine NT embryos; oocytes matured 16-17 hr, 0.4 μg/ml for 5-6 h, 31 of 81 embryos cultured",31 (38.8)^a %
same,Morula (%),"bovine NT embryos; oocytes matured 16-17 hr, 0.4 μg/ml for 5-6 h, 39 of 81 embryos cultured",39 (48.1)^a %
same,2-cell (%),"bovine NT embryos; oocytes matured 16-17 hr, 0.4 μg/ml for 5-6 h, 66 of 81 embryos cultured",66 (81.5) %
same,Blastocyst (%),"bovine NT embryos; oocytes matured 19-20 hr, with PB1, 0.2 μg/ml for 2-3 hr, 30 of 107 embryos cultured",30 (28.0)^b %
same,Morula (%),"bovine NT embryos; oocytes matured 19-20 hr, with PB1, 0.2 μg/ml for 2-3 hr, 38 of 107 embryos cultured",38 (35.5) %
same,2-cell (%),"bovine NT embryos; oocytes matured 19-20 hr, with PB1, 0.2 μg/ml for 2-3 hr, 88 of 107 embryos cultured",88 (82.2) %
same,Hatching Blastocyst (%),"bovine NT embryos; oocytes matured 19-20 hr, with PB1, 0.2 μg/ml for 2-3 hr, printed count 6, 107 embryos cultured",6 (15.0)^b %
same,Hatching Blastocyst (%),"bovine NT embryos; oocytes matured 19-20 hr, without PB1, 0.2 μg/ml for 2-3 hr, 14 of 66 embryos cultured",14 (21.2)^a %
same,Blastocyst (%),"bovine NT embryos; oocytes matured 19-20 hr, without PB1, 0.2 μg/ml for 2-3 hr, 25 of 66 embryos cultured",38% and 25 (37.9)^a %
same,Morula (%),"bovine NT embryos; oocytes matured 19-20 hr, without PB1, 0.2 μg/ml for 2-3 hr, 32 of 66 embryos cultured",32 (48.5) %
same,2-cell (%),"bovine NT embryos; oocytes matured 19-20 hr, without PB1, 0.2 μg/ml for 2-3 hr, 56 of 66 embryos cultured",56 (84.8) %
same,average blastocyst development rate,"bovine NT embryos; under 5% CO2 in air, especially oocytes matured for 14 to 17 hr and treated with colcemid",over 40%
same,Cell numbers of blastocysts vs control groups,bovine NT blastocysts; colcemid-treated groups vs control groups,numerically higher; also recorded: numerical higher
same,No. cells blastocysts (mean ± SD),bovine NT blastocysts; culture system BCR,50.3 ± 7.6^c
same,No. cells blastocysts (mean ± SD),bovine NT blastocysts; culture system SCR and co-culture,107.8 ± 21.6^a
same,No. cells blastocysts (mean ± SD),bovine NT blastocysts; culture system SCR,70.5 ± 7.8^b
same,cell number of blastocysts vs untreated,bovine NT blastocysts; embryos cultured in SCR and BCR systems,increased
same,Cell number of blastocysts (mean ± SD),"bovine NT blastocysts; oocytes matured 14-15 hr, without PB1",113 ± 10
same,Cell number of blastocysts (mean ± SD),"bovine NT blastocysts; oocytes matured 16-17 hr, with PB1",103 ± 20
same,Cell number of blastocysts (mean ± SD),"bovine NT blastocysts; oocytes matured 16-17 hr, without PB1",118 ± 17
same,Cell number of blastocysts (mean ± SD),"bovine NT blastocysts; oocytes matured 19-20 hr, with PB1",91 ± 9
same,Cell number of blastocysts (mean ± SD),"bovine NT blastocysts; oocytes matured 19-20 hr, without PB1",107 ± 11
same,term rate,"[2]; MI heifer oocytes matured 16-17 hr, 0.2 or 0.4 μg/ml colcemid 2-3 hr, 40 recipient cows, non-treated group 3.3%",12.5%
same,pregnancy rates vs non-treated group,"[2]; at 60, 90, 180 days, P<0.05",Higher
same,"intracellular calcium transients, trend between treatments",bovine oocytes [3],No trend
